Experimental data reported in the NIST ThermoML archive (doi:10.1016/j.fluid.2016.05.024).

Experiment: mn = molality of the nth substance listed, in mol/kg
Details: 87 kPa, Liquid, Vibrating tube method

CCn1cc[n+](C)c1.O=S(=O)([O-])O [1-ethyl-3-methylimidazolium hydrogen sulfate] + O
mass density [kg/m3]
Details | m1 = 0.0528 | m1 = 0.1003 | m1 = 0.1503 | m1 = 0.2034 | m1 = 0.253 | m1 = 0.303 | m1 = 0.3548 | m1 = 0.4046 | m1 = 0.453 | m1 = 0.5055
293.15 K | 1000.86 | 1003.08 | 1005.3 | 1007.57 | 1009.63 | 1011.67 | 1013.72 | 1015.68 | 1017.53 | 1019.54
298.15 K | 999.65 | 1001.82 | 1003.99 | 1006.22 | 1008.23 | 1010.23 | 1012.24 | 1014.17 | 1016 | 1017.98
303.15 K | 998.2 | 1000.33 | 1002.46 | 1004.64 | 1006.63 | 1008.6 | 1010.58 | 1012.47 | 1014.26 | 1016.21
308.15 K | 996.54 | 998.63 | 1000.73 | 1002.87 | 1004.82 | 1006.76 | 1008.7 | 1010.58 | 1012.34 | 1014.25
313.15 K | 994.68 | 996.73 | 998.8 | 1000.91 | 1002.83 | 1004.74 | 1006.66 | 1008.5 | 1010.24 | 1012.13

CCn1cc[n+](C)c1.[Cl-] [1-ethyl-3-methylimidazolium chloride] + O
mass density [kg/m3]
Details | m1 = 0.0532 | m1 = 0.1024 | m1 = 0.1528 | m1 = 0.2049 | m1 = 0.2529 | m1 = 0.3082 | m1 = 0.3571 | m1 = 0.4077 | m1 = 0.459 | m1 = 0.5026
293.15 K | 998.82 | 999.41 | 1000.01 | 1000.63 | 1001.2 | 1001.84 | 1002.41 | 1002.99 | 1003.56 | 1004.05
298.15 K | 997.66 | 998.23 | 998.82 | 999.43 | 999.98 | 1000.61 | 1001.17 | 1001.73 | 1002.29 | 1002.77
303.15 K | 996.25 | 996.81 | 997.39 | 997.98 | 998.52 | 999.14 | 999.68 | 1000.24 | 1000.79 | 1001.26
308.15 K | 994.62 | 995.17 | 995.74 | 996.32 | 996.85 | 997.46 | 997.99 | 998.53 | 999.08 | 999.54
313.15 K | 992.79 | 993.34 | 993.9 | 994.48 | 995.01 | 995.61 | 996.13 | 996.67 | 997.21 | 997.67
